For six compounds, Ratio results are on record in ChEMBL document CHEMBL1148480, “Structure-activity studies of orexin a and orexin B at the human orexin 1 and orexin 2 receptors led to orexin 2 receptor selective and orexin 1 receptor preferring ligands” (J Med Chem, 2004).

The structures appear in SMILES notation. Residues, ends and D or L forms follow the SMILES beside them. Bounds are passed on as bounds.

The nature of the test: Ratio of orexin-1 receptor to orexin-2 receptor in human.

Turning to `CC[C@H](C)[C@H](NC(=O)CNC(=O)[C@H](C)NC(=O)[C@H](C)NC(=O)[C@H](Cc1c[nH]cn1)NC(=O)[C@H](CC(N)=O)NC(=O)CNC(=O)[C@H](CO)NC(=O)[C@H](C)NC(=O)[C@H](CCC(N)=O)NC(=O)[C@H](CC(C)C)NC(=O)[C@H](CC(C)C)NC(=O)[C@H](CCCN=C(N)N)NC(=O)[C@H](CCC(N)=O)NC(=O)[C@H](CC(C)C)NC(=O)[C@H](CCCN=C(N)N)NC(=O)CNC(=O)[C@H](C)NC(=O)[C@H](CC(C)C)NC(=O)CN)C(=O)N[C@@H](CC(C)C)C(=O)N[C@H](C(=O)N[C@@H](CCSC)C(=O)O)[C@@H](C)O` (H-GLAGRLQRLLQASGNHAAGILTM-OH), the Ratio turned out to be 6.8. As for `CC[C@H](C)[C@H](NC(=O)CNC(=O)[C@H](C)NC(=O)[C@H](C)NC(=O)[C@H](Cc1c[nH]cn1)NC(=O)[C@H](CC(N)=O)NC(=O)CNC(=O)[C@H](CO)NC(=O)[C@H](C)NC(=O)[C@H](CCC(N)=O)NC(=O)[C@H](CC(C)C)NC(=O)[C@H](CC(C)C)NC(=O)[C@H](CCCN=C(N)N)NC(=O)[C@H](CCC(N)=O)NC(=O)[C@H](CC(C)C)NC(=O)[C@H](CCCN=C(N)N)NC(=O)CNC(=O)[C@H](CCC(N)=O)NC(=O)[C@@H]1CCCN1C(=O)CN)C(=O)N[C@@H](CC(C)C)C(=O)N[C@H](C(=O)N[C@@H](CCSC)C(=O)O)[C@@H](C)O` (H-GPQGRLQRLLQASGNHAAGILTM-OH), the figure is 28.3; as for `CC[C@H](C)[C@H](NC(=O)CNC(=O)[C@H](C)NC(=O)[C@H](C)NC(=O)[C@H](Cc1c[nH]cn1)NC(=O)[C@H](CC(N)=O)NC(=O)CNC(=O)[C@H](CO)NC(=O)[C@H](C)NC(=O)[C@H](CCC(N)=O)NC(=O)[C@H](CC(C)C)NC(=O)[C@H](CC(C)C)NC(=O)[C@H](CCCN=C(N)N)NC(=O)[C@@H]1CCCN1C(=O)[C@H](CC(C)C)NC(=O)[C@H](CCCN=C(N)N)NC(=O)CNC(=O)[C@H](CCC(N)=O)NC(=O)[C@H](CC(C)C)NC(=O)CN)C(=O)N[C@@H](CC(C)C)C(=O)N[C@H](C(=O)N[C@@H](CCSC)C(=O)O)[C@@H](C)O` (stereo in doubt; form 1), 18.8; as for `CC[C@H](C)[C@H](NC(=O)CNC(=O)[C@H](C)NC(=O)[C@H](C)NC(=O)[C@H](Cc1c[nH]cn1)NC(=O)[C@H](CC(N)=O)NC(=O)CNC(=O)[C@H](C)NC(=O)CNC(=O)[C@H](Cc1c[nH]cn1)NC(=O)[C@H](CC(C)C)NC(=O)[C@H](CC(C)C)NC(=O)[C@H](CCC(=O)O)NC(=O)[C@H](Cc1ccc(O)cc1)NC(=O)[C@H](CC(C)C)NC(=O)[C@H](CCCN=C(N)N)NC(=O)[C@H](CS)NC(=O)[C@H](CO)NC(=O)[C@H](CS)NC(=O)[C@@H](N)[C@@H](C)O)C(=O)N[C@@H](CC(C)C)C(=O)N[C@H](C(=O)N[C@@H](CC(C)C)C(=O)O)[C@@H](C)O` (H-TCSCRLYELLHGAGNHAAGILTL-OH), 3.2. Under `CC[C@H](C)[C@H](NC(=O)CNC(=O)[C@H](C)NC(=O)[C@H](C)NC(=O)[C@H](Cc1c[nH]cn1)NC(=O)[C@H](CC(N)=O)NC(=O)CNC(=O)[C@H](C)NC(=O)CNC(=O)[C@H](Cc1c[nH]cn1)NC(=O)[C@H](CC(C)C)NC(=O)[C@H](CC(C)C)NC(=O)[C@H](CCC(=O)O)NC(=O)[C@H](Cc1ccc(O)cc1)NC(=O)[C@H](CC(C)C)NC(=O)[C@H](CCCN=C(N)N)NC(=O)[C@H](CS)NC(=O)[C@@H](N)CO)C(=O)N[C@@H](CC(C)C)C(=O)N[C@H](C(=O)N[C@@H](CC(C)C)C(=O)O)[C@@H](C)O` (H-SCRLYELLHGAGNHAAGILTL-OH) stands 2.3; under `CC[C@H](C)[C@H](NC(=O)CNC(=O)[C@H](C)NC(=O)[C@@H]1CCCN1C(=O)[C@H](Cc1c[nH]cn1)NC(=O)[C@H](CC(N)=O)NC(=O)CNC(=O)[C@H](CO)NC(=O)[C@H](C)NC(=O)[C@H](CCC(N)=O)NC(=O)[C@H](CC(C)C)NC(=O)[C@H](CC(C)C)NC(=O)[C@H](CCCN=C(N)N)NC(=O)[C@H](CCC(N)=O)NC(=O)[C@H](CC(C)C)NC(=O)[C@H](CCCN=C(N)N)NC(=O)CNC(=O)[C@H](CCC(N)=O)NC(=O)[C@H](CC(C)C)NC(=O)CN)C(=O)N[C@@H](CC(C)C)C(=O)N[C@H](C(=O)N[C@@H](CCSC)C(=O)O)[C@@H](C)O` (H-GLQGRLQRLLQASGNHPAGILTM-OH), above 230.
